Laboratory results as given in US20260206755A1, “COMPOUNDS AND COMPOSITIONS HAVING KNOCK-DOWN OR BLOOD FEED INHIBITION ACTIVITY AGAINST INSECT PESTS” (priority 2017, published 2026).
Read-outs that look alike come from different tables or passages of the source.

System: Anopheles stephensi
Assay: Anopheles stephensi treated well plate contact test: knockdown and mortality
Assay type: in vivo
Details: for mortality at 0.2 ppm / pest or weed control at 0.2 ppm / mortality at 2 ppm / pest or weed control at 2 ppm / mortality at 20 ppm / pest or weed control at 20 ppm / mortality at 200 ppm / pest or weed control at 200 ppm / mortality at 0.02 ppm / pest or weed control at 0.02 ppm: Anopheles stephensi; for pest or weed control at 0.2 ppm / pest or weed control at 2 ppm / pest or weed control at 20 ppm / pest or weed control at 200 ppm / Knock Down, with TFNA-AM / pest or weed control at 0.02 ppm: knockdown after 1 hour; for pest or weed control at 0.2 ppm / pest or weed control at 2 ppm / pest or weed control at 20 ppm / pest or weed control at 200 ppm / pest or weed control at 0.02 ppm: read-out: Knock Down, without TFNA-AM; for mortality at 200 ppm / pest or weed control at 200 ppm: test compound 200 ppm; for pest or weed control at 200 ppm: adult females
Procedure: Examples Anopheles stephensi (Indian Malaria Mosquito)
The individual wells of twelve (12) well tissue culture plates were treated with 200 μl of an ethanol solution containing a test compound of Table 1 or Table 2 at a defined concentration and repeated with also 200 μl of an ethanol solution containing in addition 2 ppm TFNA-AM. Once the deposits were dry, five non-blood fed adult female Anopheles stephensi (between two to five day old) were added to each well, and sustained with a 10% sucrose solution in a cotton wool plug. Assessment of the knockdown after 1 hour, and mortality after 24 and 48 hours was carried out.
In case of multiple tests, the mean value is reported.

[1] = test compound 0.2 ppm, without TFNA-AM, after 24 hours, read-out: mortality % 24, without TFNA-AM
[2] = test compound 0.2 ppm, without TFNA-AM, after 48 hours, read-out: mortality % 48, without TFNA-AM
[3] = test compound 0.2 ppm, without TFNA-AM
[4] = test compound 2 ppm, without TFNA-AM, after 24 hours, read-out: mortality % 24, without TFNA-AM
[5] = test compound 2 ppm, without TFNA-AM, after 48 hours, read-out: mortality % 48, without TFNA-AM
[6] = test compound 2 ppm, without TFNA-AM
[7] = test compound 20 ppm, without TFNA-AM, after 24 hours, read-out: mortality % 24, without TFNA-AM
[8] = test compound 20 ppm, without TFNA-AM, after 48 hours, read-out: mortality % 48, without TFNA-AM
[9] = test compound 20 ppm, without TFNA-AM
[10] = without TFNA-AM, after 24 hours, read-out: mortality % 24, without TFNA-AM
[11] = without TFNA-AM, after 48 hours, read-out: mortality % 48, without TFNA-AM
[12] = test compound 0.2 ppm plus 2 ppm TFNA-AM, after 24 hours
[13] = test compound 0.2 ppm plus 2 ppm TFNA-AM, after 48 hours
[14] = test compound 0.2 ppm plus 2 ppm TFNA-AM
[15] = test compound 2 ppm plus 2 ppm TFNA-AM, after 24 hours
[16] = test compound 2 ppm plus 2 ppm TFNA-AM, after 48 hours
[17] = test compound 2 ppm plus 2 ppm TFNA-AM
[18] = test compound 20 ppm plus 2 ppm TFNA-AM, after 24 hours
[19] = test compound 20 ppm plus 2 ppm TFNA-AM, after 48 hours
[20] = test compound 20 ppm plus 2 ppm TFNA-AM
[21] = test compound 200 ppm plus 2 ppm TFNA-AM, after 24 hours
[22] = test compound 200 ppm plus 2 ppm TFNA-AM, after 48 hours
[23] = test compound 200 ppm plus 2 ppm TFNA-AM
[24] = 24 h, read-out: mortality % 24, without TFNA-AM
[25] = 48 h, read-out: mortality % 48, without TFNA-AM
[26] = test compound 0.02 ppm, without TFNA-AM
[27] = test compound 0.02 ppm plus 2 ppm TFNA-AM, after 24 hours
[28] = test compound 0.02 ppm plus 2 ppm TFNA-AM, after 48 hours
[29] = test compound 0.02 ppm plus 2 ppm TFNA-AM

Compound: CCOc1cc(C(C)(C)C)ccc1C1COC(c2c(F)cccc2F)=N1 (stereo not drawn) [Etoxazole]
- mortality at 0.2 ppm [1]: 0%
- mortality at 0.2 ppm [2]: 0%
- pest or weed control at 0.2 ppm [3]: 0%
- mortality at 2 ppm [4]: 0%
- mortality at 2 ppm [5]: 0%
- pest or weed control at 2 ppm [6]: 0%
- mortality at 20 ppm [7]: 0%
- mortality at 20 ppm [8]: 0%
- pest or weed control at 20 ppm [9]: 0%
- mortality at 200 ppm [10]: 0%
- mortality at 200 ppm [11]: 0%
- pest or weed control at 200 ppm (without TFNA-AM): 0%
- mortality % 24, with TFNA-AM [12]: 40%
- mortality % 48, with TFNA-AM [13]: 40%
- Knock Down, with TFNA-AM [14]: 100%
- mortality % 24, with TFNA-AM [15]: 60%
- mortality % 48, with TFNA-AM [16]: 40%
- Knock Down, with TFNA-AM [17]: 100%
- mortality % 24, with TFNA-AM [18]: 60%
- mortality % 48, with TFNA-AM [19]: 60%
- Knock Down, with TFNA-AM [20]: 100%
- mortality % 24, with TFNA-AM [21]: 80%
- mortality % 48, with TFNA-AM [22]: 80%
- Knock Down, with TFNA-AM [23]: 100%

Compound: COP(=S)(OC)Oc1ccc([N+](=O)[O-])c(C)c1 [Fenitrothion]
- mortality at 0.02 ppm [24]: 0%
- mortality at 0.2 ppm [24]: 20%
- mortality at 2 ppm [24]: 100%
- mortality at 20 ppm [24]: 100%
- mortality at 0.02 ppm [25]: 0%
- mortality at 0.2 ppm [25]: 100%
- mortality at 2 ppm [25]: 100%
- mortality at 20 ppm [25]: 100%
- pest or weed control at 0.02 ppm [26]: 0%
- pest or weed control at 0.2 ppm [3]: 0%
- pest or weed control at 2 ppm [6]: 0%
- pest or weed control at 20 ppm [9]: 0%
- mortality % 24, with TFNA-AM [27]: 40%
- mortality % 48, with TFNA-AM [28]: 40%
- Knock Down, with TFNA-AM [29]: 100%
- mortality % 24, with TFNA-AM [12]: 80%
- mortality % 48, with TFNA-AM [13]: 100%
- Knock Down, with TFNA-AM [14]: 100%
- mortality % 24, with TFNA-AM [15]: 100%
- mortality % 48, with TFNA-AM [16]: 100%
- Knock Down, with TFNA-AM [17]: 100%
- mortality % 24, with TFNA-AM [18]: 100%
- mortality % 48, with TFNA-AM [19]: 100%
- Knock Down, with TFNA-AM [20]: 100%

Compound: CCOC(=O)NCCOc1ccc(Oc2ccccc2)cc1 [Fenoxycarb]
- mortality at 0.2 ppm [1]: 0%
- mortality at 0.2 ppm [2]: 0%
- pest or weed control at 0.2 ppm [3]: 0%
- mortality at 2 ppm [4]: 0%
- mortality at 2 ppm [5]: 0%
- pest or weed control at 2 ppm [6]: 0%
- mortality at 20 ppm [7]: 0%
- mortality at 20 ppm [8]: 0%
- pest or weed control at 20 ppm [9]: 20%
- mortality at 200 ppm [10]: 0%
- mortality at 200 ppm [11]: 0%
- pest or weed control at 200 ppm (without TFNA-AM): 20%
- mortality % 24, with TFNA-AM [12]: 40%
- mortality % 48, with TFNA-AM [13]: 40%
- Knock Down, with TFNA-AM [14]: 100%
- mortality % 24, with TFNA-AM [15]: 80%
- mortality % 48, with TFNA-AM [16]: 80%
- Knock Down, with TFNA-AM [17]: 100%
- mortality % 24, with TFNA-AM [18]: 80%
- mortality % 48, with TFNA-AM [19]: 80%
- Knock Down, with TFNA-AM [20]: 100%
- mortality % 24, with TFNA-AM [21]: 80%
- mortality % 48, with TFNA-AM [22]: 80%
- Knock Down, with TFNA-AM [23]: 100%

Compound: N#Cc1nn(-c2c(Cl)cc(C(F)(F)F)cc2Cl)c(N)c1[S+]([O-])C(F)(F)F (stereo not drawn) [Fipronil]
- mortality at 0.02 ppm (test compound 0.02 ppm, without TFNA-AM, after 24 hours, read-out: mortality % 24, without TFNA-AM): 0%
- mortality at 0.02 ppm (test compound 0.02 ppm, without TFNA-AM, after 48 hours, read-out: mortality % 48, without TFNA-AM): 20%
- pest or weed control at 0.02 ppm [26]: 0%
- mortality at 0.2 ppm [1]: 20%
- mortality at 0.2 ppm [2]: 40%
- pest or weed control at 0.2 ppm [3]: 0%
- mortality at 2 ppm [4]: 40%
- mortality at 2 ppm [5]: 100%
- pest or weed control at 2 ppm [6]: 0%
- mortality at 20 ppm [7]: 100%
- mortality at 20 ppm [8]: 100%
- pest or weed control at 20 ppm [9]: 0%
- mortality % 24, with TFNA-AM [27]: 0%
- mortality % 48, with TFNA-AM [28]: 0%
- Knock Down, with TFNA-AM [29]: 100%
- mortality % 24, with TFNA-AM [12]: 60%
- mortality % 48, with TFNA-AM [13]: 100%
- Knock Down, with TFNA-AM [14]: 100%
- mortality % 24, with TFNA-AM [15]: 80%
- mortality % 48, with TFNA-AM [16]: 100%
- Knock Down, with TFNA-AM [17]: 100%
- mortality % 24, with TFNA-AM [18]: 100%
- mortality % 48, with TFNA-AM [19]: 100%
- Knock Down, with TFNA-AM [20]: 100%
